Assay results as given in ChEMBL document CHEMBL1201862, “PubChem BioAssay data set” (2004).
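Protocol summary: plate cells (96-well), add compound at 5 concentrations, incubate 48 h, interpolate endpoints linearly. GI50: concentration for 50% inhibition of growth.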 Active and inactive are the calls of the source. Rule as the data show it: active = GI50 up to about 1.1 µM and inactive = higher.

Experiments:
Test in all cases: NCI-60 cell line screen, 48 h
HOP-62 = system: HOP-62
KM12 = system: KM12
SNB-75 = system: SNB-75
OVCAR-3 = system: OVCAR-3
NCI-H23 = system: NCI-H23
LXFL 529 = system: LXFL 529
786-0 = system: 786-0
HCC 2998 = system: HCC 2998
RPMI-8226 = system: RPMI-8226
Malme-3M = system: Malme-3M
OVCAR-4 = system: OVCAR-4
SF-539 = system: SF-539
HL-60 = system: HL-60
HCT-116 = system: HCT-116
SNB-78 = system: SNB-78
CAKI-1 = system: CAKI-1
SF-295 = system: SF-295
SK-MEL-2 = system: SK-MEL-2
HCT-15 = system: HCT-15
SF-268 = system: SF-268
COLO 205 = system: COLO 205
SNB-19 = system: SNB-19
SR = system: SR
TK-10 = system: TK-10
A549 = system: A549
CCRF-CEM = system: CCRF-CEM
HT-29 = system: HT-29
NCI-H460 = system: NCI-H460
RXF 631 = system: RXF 631
SK-MEL-28 = system: SK-MEL-28
EKVX = system: EKVX
U-251 = system: U-251
DMS-114 = system: DMS-114
OVCAR-8 = system: OVCAR-8
NCI-H522 = system: NCI-H522
UACC-62 = system: UACC-62
M19-MEL = system: M19-MEL
KM-20L2 = system: KM-20L2
ACHN = system: ACHN
HOP-92 = system: HOP-92
K562 = system: K562
M14 = system: M14
SK-OV-3 = system: SK-OV-3
SN12C = system: SN12C
RXF 393 = system: RXF 393
DMS-273 = system: DMS-273
SK-MEL-5 = system: SK-MEL-5
UACC-257 = system: UACC-257
UO-31 = system: UO-31
MOLT-4 = system: MOLT-4
HOP-18 = system: HOP-18
NCI-H226 = system: NCI-H226
DLD-1 = system: DLD-1
OVCAR-5 = system: OVCAR-5
LOX IMVI = system: LOX IMVI
SW-620 = system: SW-620
IGROV-1 = system: IGROV-1
XF498 = system: XF498
A498 = system: A498

Measured: GI50

N#C/C(=C\c1ccc[nH]1)C(=O)c1ccccc1
> 100 µM: HCT-15
inactive: HOP-62 > 100 µM | KM12 > 100 µM | SNB-75 35.8 µM | OVCAR-3 > 100 µM | NCI-H23 > 100 µM | LXFL 529 > 100 µM | 786-0 > 100 µM | HCC 2998 > 100 µM | RPMI-8226 > 100 µM | Malme-3M > 100 µM | OVCAR-4 > 100 µM | SF-539 > 100 µM | HL-60 > 100 µM | HCT-116 > 100 µM | SNB-78 > 100 µM | CAKI-1 > 100 µM | SF-295 > 100 µM | SK-MEL-2 > 100 µM | SF-268 > 100 µM | COLO 205 > 100 µM | SNB-19 > 100 µM | SR > 100 µM | TK-10 > 100 µM | A549 > 100 µM | CCRF-CEM > 100 µM | HT-29 > 100 µM | NCI-H460 > 100 µM | RXF 631 > 100 µM | SK-MEL-28 > 100 µM | EKVX > 100 µM | U-251 > 100 µM | DMS-114 > 100 µM | OVCAR-8 > 100 µM | NCI-H522 > 100 µM | UACC-62 > 100 µM | M19-MEL > 100 µM | KM-20L2 > 100 µM | ACHN > 100 µM | HOP-92 70.8 µM | K562 > 100 µM | M14 > 100 µM | SK-OV-3 > 100 µM | SN12C > 100 µM | RXF 393 58.9 µM | DMS-273 > 100 µM | SK-MEL-5 > 100 µM | UACC-257 > 100 µM | UO-31 > 100 µM | MOLT-4 > 100 µM | HOP-18 70.3 µM | NCI-H226 > 100 µM | DLD-1 > 100 µM | OVCAR-5 > 100 µM | LOX IMVI > 100 µM | SW-620 > 100 µM

COc1ccc(CCN(C)C2CCC(C#N)(c3ccc(OC)c(OC)c3)CC2)cc1OC (configuration not stated)
inactive: HOP-62 > 100 µM | KM12 > 100 µM | SNB-75 > 100 µM | OVCAR-3 > 100 µM | IGROV-1 > 100 µM | NCI-H23 > 100 µM | LXFL 529 > 100 µM | 786-0 > 100 µM | HCC 2998 34.8 µM | RPMI-8226 54 µM | Malme-3M > 100 µM | OVCAR-4 > 100 µM | SF-539 > 100 µM | HL-60 71 µM | HCT-116 85.3 µM | SF-295 > 100 µM | SK-MEL-2 > 100 µM | XF498 > 100 µM | SF-268 > 100 µM | COLO 205 26.7 µM | SNB-19 > 100 µM | SR > 100 µM | TK-10 > 100 µM | A549 > 100 µM | CCRF-CEM > 100 µM | HT-29 34.4 µM | NCI-H460 > 100 µM | RXF 631 61.2 µM | SK-MEL-28 83.8 µM | EKVX > 100 µM | U-251 > 100 µM | OVCAR-8 > 100 µM | NCI-H522 > 10 µM | UACC-62 > 100 µM | M19-MEL > 100 µM | KM-20L2 48.4 µM | ACHN > 100 µM | HOP-92 38.9 µM | K562 39.1 µM | M14 > 100 µM | SK-OV-3 > 100 µM | SN12C > 100 µM | RXF 393 > 100 µM | DMS-273 > 100 µM | SK-MEL-5 56.9 µM | UACC-257 > 100 µM | UO-31 > 100 µM | MOLT-4 > 100 µM | HOP-18 > 100 µM | NCI-H226 > 100 µM | DLD-1 > 100 µM | OVCAR-5 > 100 µM | LOX IMVI > 100 µM | SW-620 > 100 µM
> 100 µM: HCT-15

CCOC(=O)/C(O)=C(/C(=O)OC)c1ccc(Cl)cc1
> 100 µM: HCT-15
inactive: HOP-62 > 100 µM | KM12 > 100 µM | SNB-75 > 100 µM | OVCAR-3 > 100 µM | IGROV-1 > 100 µM | NCI-H23 > 100 µM | LXFL 529 > 100 µM | 786-0 > 100 µM | HCC 2998 > 100 µM | RPMI-8226 > 100 µM | Malme-3M > 100 µM | OVCAR-4 > 100 µM | SF-539 > 100 µM | SNB-78 > 100 µM | CAKI-1 > 100 µM | SF-295 > 100 µM | SK-MEL-2 > 100 µM | XF498 > 100 µM | SF-268 > 100 µM | COLO 205 > 100 µM | SNB-19 > 100 µM | TK-10 > 100 µM | A549 > 100 µM | CCRF-CEM > 100 µM | HT-29 > 100 µM | NCI-H460 > 100 µM | RXF 631 > 100 µM | SK-MEL-28 > 100 µM | EKVX > 100 µM | U-251 > 100 µM | DMS-114 > 100 µM | OVCAR-8 > 100 µM | A498 > 100 µM | UACC-62 > 100 µM | M19-MEL > 100 µM | KM-20L2 > 100 µM | ACHN > 100 µM | K562 > 100 µM | M14 > 100 µM | SK-OV-3 > 100 µM | SN12C > 100 µM | DMS-273 > 100 µM | SK-MEL-5 > 100 µM | UACC-257 > 100 µM | UO-31 > 100 µM | MOLT-4 > 100 µM | DLD-1 > 100 µM | OVCAR-5 > 100 µM | LOX IMVI > 100 µM | SW-620 > 100 µM
